The values that follow are results of earlier work, collected in patent US20230048954A1, “COMPOSITIONS FOR REMOVING NECROTIC OR INFECTED TISSUES FROM BODY SURFACE LESIONS” (priority 2020, published 2023).

Structures are written as SMILES.

The conditions of this series: at a temperature of 25° C.

Usually pKa stands for the pH at which an ionisable group is half protonated. In the case of `CCCS(=O)(=O)O` [1-Propanesulfonic acid], the pKa is reported as −0.86. With `O=[N+]([O-])O` [Nitric], the pKa is given as −1.4.
